From patent US8835466B2, “Synthesis and uses of pyroglutamic acid derivatives” (Prodimed, S.A., priority 2006, dated 2014)

Tested on: KLN 205 cells (lung cell carcinoma)
Test: Effect of 9d in combination with Cisplatin on tumour growth, KLN 205 (Example 11)
Assay type: in vivo, DBA/2 mice
Conditions: for Tumour surface, overall values (Mean) / Tumour surface, overall values (Median) / Tumour volume, overall values (Mean) / Tumour volume, overall values (Median): Cisplatin 65 μg i.p. days 3, 6, 10, 13, 17, 20
Procedure: This was carried out by measuring two perpendicular diameters (d1/d2) with a calliper. These measures were used to obtain both tumour surface and volume: […] Results were expressed as single values and/or as the mean±SD or median from each experimental group. This assay was made in order to check the effect on in vivo tumour growth in mice challenged with KLN 205 cells. Their effect was compared with the combination of Cisplatin plus 9d and/or placebo. KLN 205 is a lung cell carcinoma originated in DBA/2 mouse strain, and therefore syngeneic in mice with DBA/2 genetic background (Kaneko T and […]. Growth characteristics and drug responses of a murine lung carcinoma in vitro and in vivo. Cancer Res. 38: 2084-2090; 1978). KLN 205 cells (CLS, Eppelheim, Germany) were maintained in vitro by serial passages every 3-4 days. […] Louis, Mo., USA) by seeding 5×10^6 cells onto 75 cm^2 culture flasks. Subcultures were carried out by collecting detached cells after treatment with trypsin-EDTA (Sigma, St. Louis, Mo., USA). Tumour cells, collected from 48 hour cultures, were used as source of KLN 205 cells for the studies described below. […] Tumours were established by subcutaneous inoculation in the right hind flank. Mice (DBA/2) were inoculated with 0.2 mL containing 2×10^5 viable KLN 205 cells. The day of subcutaneous inoculation will be considered Day 0 of the test. A case-control study was performed with treated and control mice in order to determine whether differences between placebo, 9d, Cisplatin or 9d+Cisplatin were present. […] The t-test was chosen for being one of the better known parametrical tests.

[1] = day 0 after tumour inoculation, 9d 250 ng
[2] = day 10 after tumour inoculation, 9d 250 ng
[3] = day 13 after tumour inoculation, 9d 250 ng
[4] = day 17 after tumour inoculation, 9d 250 ng
[5] = day 20 after tumour inoculation, 9d 250 ng
[6] = day 24 after tumour inoculation, 9d 250 ng
[7] = day 27 after tumour inoculation, 9d 250 ng
[8] = day 31 after tumour inoculation, 9d 250 ng
[9] = day 34 after tumour inoculation, 9d 250 ng
[10] = day 38 after tumour inoculation, 9d 250 ng

Br.N[C@]1(C[n+]2ccccc2)C[C@H](C(=O)O)NC1=O.[Br-] (single isomer, unassigned; isomer 4) [isomer 4, 3S,5R-1-(3-Amino-5-carboxy-2-oxopyrrolidin-3-ylmethyl)pyridinium bromide hidrobromide]
Tumour surface, overall values (Mean) [1]: 0 mm^2
Tumour surface, overall values (Median) [1]: 0 mm^2
Tumour volume, overall values (Mean) [1]: 0 mm^3
Tumour volume, overall values (Median) [1]: 0 mm^3
Tumour surface, overall values (Mean) [2]: 5.38 mm^2
Tumour surface, overall values (Median) [2]: 4 mm^2
Tumour volume, overall values (Mean) [2]: 8.81 mm^3
Tumour volume, overall values (Median) [2]: 4 mm^3
Tumour surface, overall values (Mean) [3]: 17.25 mm^2
Tumour surface, overall values (Median) [3]: 16 mm^2
Tumour volume, overall values (Mean) [3]: 43.38 mm^3
Tumour volume, overall values (Median) [3]: 32 mm^3
Tumour surface, overall values (Mean) [4]: 29.88 mm^2
Tumour volume, overall values (Mean) [4]: 94.56 mm^3
Tumour surface, overall values (Mean) [5]: 57.06 mm^2
Tumour surface, overall values (Median) [5]: 36 mm^2
Tumour volume, overall values (Mean) [5]: 246.03 mm^3
Tumour volume, overall values (Median) [5]: 108 mm^3
Tumour surface, overall values (Mean) [6]: 81.38 mm^2
Tumour surface, overall values (Median) [6]: 64 mm^2
Tumour volume, overall values (Mean) [6]: 393.25 mm^3
Tumour volume, overall values (Median) [6]: 256 mm^3
Tumour surface, overall values (Mean) [7]: 113.5 mm^2
Tumour surface, overall values (Median) [7]: 105.5 mm^2
Tumour volume, overall values (Mean) [7]: 611.75 mm^3
Tumour volume, overall values (Median) [7]: 446.75 mm^3
Tumour surface, overall values (Mean) [8]: 135.31 mm^2
Tumour surface, overall values (Median) [8]: 132.5 mm^2
Tumour volume, overall values (Mean) [8]: 777.53 mm^3
Tumour volume, overall values (Median) [8]: 628.75 mm^3
Tumour surface, overall values (Mean) [9]: 168.81 mm^2
Tumour surface, overall values (Median) [9]: 170.5 mm^2
Tumour volume, overall values (Mean) [9]: 1068.3 mm^3
Tumour volume, overall values (Median) [9]: 937.75 mm^3
Tumour surface, overall values (Mean) [10]: 214.44 mm^2
Tumour surface, overall values (Median) [10]: 227.5 mm^2
Tumour volume, overall values (Mean) [10]: 1504.7 mm^3
Tumour volume, overall values (Median) [10]: 1478.8 mm^3
KLN 205 tumour growth vs. placebo, tendency in words (either in surface or volume, all days scored after day 31th, t-test): significant tendency
Differences in KLN 205 tumour growth rate vs. placebo, in words (t-test, 250 ng i.p.): not differences

N.N.[Cl][Pt][Cl] [Cisplatin, reference compound]
Inhibition of the in vivo growth of KLN 205 cell, in words (9d 250 ng, Cisplatin 65 μg i.p.): inhibit the in vivo growth
Tumour surface, overall values (Mean) [1]: 0 mm^2
Tumour surface, overall values (Median) [1]: 0 mm^2
Tumour volume, overall values (Mean) [1]: 0 mm^3
Tumour volume, overall values (Median) [1]: 0 mm^3
Tumour surface, overall values (Mean) [2]: 4.07 mm^2
Tumour surface, overall values (Median) [2]: 4 mm^2
Tumour volume, overall values (Mean) [2]: 5.1 mm^3
Tumour volume, overall values (Median) [2]: 4 mm^3
Tumour surface, overall values (Mean) [3]: 14.87 mm^2
Tumour surface, overall values (Median) [3]: 16 mm^2
Tumour volume, overall values (Mean) [3]: 31.77 mm^3
Tumour volume, overall values (Median) [3]: 32 mm^3
Tumour surface, overall values (Mean) [4]: 23.93 mm^2
Tumour surface, overall values (Median) [4]: 20 mm^2
Tumour volume, overall values (Mean) [4]: 59.1 mm^3
Tumour volume, overall values (Median) [4]: 40 mm^3
Tumour surface, overall values (Mean) [5]: 39.07 mm^2
Tumour surface, overall values (Median) [5]: 36 mm^2
Tumour volume, overall values (Mean) [5]: 119.07 mm^3
Tumour volume, overall values (Median) [5]: 108 mm^3
Tumour surface, overall values (Mean) [6]: 72.2 mm^2
Tumour surface, overall values (Median) [6]: 72 mm^2
Tumour volume, overall values (Mean) [6]: 285.43 mm^3
Tumour volume, overall values (Median) [6]: 288 mm^3
Tumour surface, overall values (Mean) [7]: 97.07 mm^2
Tumour surface, overall values (Median) [7]: 99 mm^2
Tumour volume, overall values (Mean) [7]: 445.8 mm^3
Tumour volume, overall values (Median) [7]: 445.5 mm^3
Tumour surface, overall values (Mean) [8]: 124.67 mm^2
Tumour surface, overall values (Median) [8]: 120 mm^2
Tumour volume, overall values (Mean) [8]: 637.07 mm^3
Tumour volume, overall values (Median) [8]: 600 mm^3
Tumour surface, overall values (Mean) [9]: 147.93 mm^2
Tumour surface, overall values (Median) [9]: 150 mm^2
Tumour volume, overall values (Mean) [9]: 809.03 mm^3
Tumour volume, overall values (Median) [9]: 800 mm^3
Tumour surface, overall values (Mean) [10]: 185.33 mm^2
Tumour surface, overall values (Median) [10]: 198 mm^2
Tumour volume, overall values (Mean) [10]: 1129.9 mm^3
Tumour volume, overall values (Median) [10]: 1089 mm^3
Differences in KLN 205 tumour growth rate vs. placebo, statistical significance p (t-test) (either in surface or volume, all days scored after day 20th): < 0.05
